In brackets after ≈: the same amount, converted by molar mass. Like-named read-outs stand apart in the source and are kept apart here.
Tests used:
[1] = tested on: Mycobacterium tuberculosis TB H3 Rv; test: Antituberculotic action, in vivo test (mice), administration p.o.; set-up: species or system Mycobacterium tuberculosis; mice; conditions: for ED50: Mycobacterium tuberculosis, TBH3RV, po
Source text: (§1) (2) Test organism: Mycobacterium tuberculosis TB H3 Rv
(4) In vivo test (mice); administration p.o.

[2] = tested on: Mycobacterium tuberculosis TB H3 Rv; test: Antituberculotic action, minimum inhibitory concentration in a plate test in vitro; type: cell-based; conditions: M. tuberculosis TB H3 Rv; for Antituberculotic action, MIC (minimum inhibitory concentration): plate test in vitro; for MIC: Mycobacterium tuberculosis, TBH3RV, read-out: Antituberculotic action, MIC (minimum inhibitory concentration), plate test in vitro
Source text: as §1
(3) Minimum inhibitory concentration in a plate test in vitro.

Pharmacokinetics in mice = type: in vivo; conditions: for half-life / Cmax: mouse; for half-life: read-out: t/2 (half-life period of excretion) (converted); for Cmax / Cmax (highest concentration of the active ingredient in the blood plasma): blood plasma; for Cmax: read-out: Cmax (highest concentration of the active ingredient in the blood plasma)
Source text: (§2) (5) Half-life period of excretion (in hours).
(§3) (6) Highest concentration of the active ingredient in the blood plasma.

Pharmacokinetics in rats = type: in vivo; conditions: for half-life / Cmax: rat; for half-life: in vivo, read-out: t/2 (half-life period of excretion) (converted); for Cmax / Cmax (highest concentration of the active ingredient in the blood plasma): blood plasma; for Cmax: read-out: Cmax (highest concentration of the active ingredient in the blood plasma)
Source text: as §2, §3

tuberculosis infections = conditions: prior art, U.S. Pat. No. 3,342,810; cited from earlier work
[3] = prior art statement, in some cases; cited from earlier work
[4] = in vivo, mice, p.o., read-out: Antituberculotic action, ED50

With `CCC1CCC2CN(N=Cc3c4c(O)c5c(O)c(C)c6c(c5c3O)C(=O)[C@@](C)(O/C=C/[C@H](OC)[C@@H](C)[C@@H](OC(C)=O)[C@H](C)[C@H](O)[C@H](C)[C@@H](O)[C@@H](C)/C=C/C=C(/C)C(=O)N4)O6)CCN2C1` (single isomer, unassigned) [Example 4 Isomer A, hydrazone of 3-formylrifamycin SV with 3-amino-7-ethylperhydro-1H-pyrido[1,2-a]pyrazine] the ED50 [1, 4] was 0.8 mg/kg, the “Antituberculotic action, MIC (minimum inhibitory concentration)” value ([2]; listed as 4 Isomer A) was 0.01 µg/mL and the half-life (Pharmacokinetics in mice; in vivo) was 55.1 h. It also gave a Cmax (Pharmacokinetics in mice; plasma) of 29500 ng/mL.

In the case of `CCC1CCC2CN(N=Cc3c4c(O)c5c(O)c(C)c6c(c5c3O)C(=O)[C@@](C)(O/C=C/[C@H](OC)[C@@H](C)[C@@H](OC(C)=O)[C@H](C)[C@H](O)[C@H](C)[C@@H](O)[C@@H](C)/C=C/C=C(/C)C(=O)N4)O6)CCN2C1` (single isomer, unassigned) [Example 4 Isomer B, hydrazone of 3-formylrifamycin SV with 3-amino-7-ethylperhydro-1H-pyrido[1,2-a]pyrazine], the “Antituberculotic action, ED50” value ([1]; in vivo, mice, p.o.) is reported as 1 mg/kg, the “Antituberculotic action, MIC (minimum inhibitory concentration)” value ([2]; listed as 4 Isomer B) is reported as 0.03 µg/mL and the “t/2 (half-life period of excretion)” value (Pharmacokinetics in mice) is reported as 44.6 h. The “Cmax (highest concentration of the active ingredient in the blood plasma)” value (Pharmacokinetics in mice) was 26400 ng/mL.

Work on `COC1C=COC2(C)Oc3c(C)c(O)c4c(O)c(c(C=NN5CC6CCCCN6CC5C)c(O)c4c3C2=O)NC(=O)C(C)=CC=CC(C)C(O)C(C)C(O)C(C)C(OC(C)=O)C1C` (single isomer, unassigned) [Example 5 Isomer A, hydrazone of 3-formylrifamycin SV with 3-amino-2-methylperhydro-1H-pyrido[1,2-a]pyrazine] yielded an ED50 [1, 4] of 3 mg/kg, a half-life (Pharmacokinetics in rats) of 58.5 h and a Cmax (Pharmacokinetics in rats; plasma) of 19700 ng/mL. For the same molecule, the “Antituberculotic action, MIC (minimum inhibitory concentration)” value ([2]; listed as 5 Isomer A) was 0.2 µg/mL, the “Cmax (highest concentration of the active ingredient in the blood plasma)” value (Pharmacokinetics in mice; listed as 5 Isomer A) was 15000 ng/mL and the “t/2 (half-life period of excretion)” value (Pharmacokinetics in mice; listed as 5 Isomer A) was 69.3 h.

With `COC1C=COC2(C)Oc3c(C)c(O)c4c(O)c(c(C=NN5CC6CCCCN6CC5C)c(O)c4c3C2=O)NC(=O)C(C)=CC=CC(C)C(O)C(C)C(O)C(C)C(OC(C)=O)C1C` (single isomer, unassigned) [Example 5 Isomer B, hydrazone of 3-formylrifamycin SV with 3-amino-2-methylperhydro-1H-pyrido[1,2-a]pyrazine] the “Antituberculotic action, ED50” value ([1]; in vivo, mice, p.o., listed as 5 Isomer B) was 2 mg/kg, the “t/2 (half-life period of excretion)” value (Pharmacokinetics in rats) was 44.7 h and the “Cmax (highest concentration of the active ingredient in the blood plasma)” value (Pharmacokinetics in rats) was 16400 ng/mL. For the same molecule, the “Antituberculotic action, MIC (minimum inhibitory concentration)” value ([2]; listed as 5 Isomer B) was 0.4 µg/mL, the “Cmax (highest concentration of the active ingredient in the blood plasma)” value (Pharmacokinetics in mice; listed as 5 Isomer B) was 38800 ng/mL and the “t/2 (half-life period of excretion)” value (Pharmacokinetics in mice; listed as 5 Isomer B) was 66 h.

With `COC1C=COC2(C)Oc3c(C)c(O)c4c(O)c(c(C=NN5CC6CCCCN6CC5C)c(O)c4c3C2=O)NC(=O)C(C)=CC=CC(C)C(O)C(C)C(O)C(C)C(OC(C)=O)C1C` (single isomer, unassigned) [Example 5 Isomer C, hydrazone of 3-formylrifamycin SV with 3-amino-2-methylperhydro-1H-pyrido[1,2-a]pyrazine] the “Antituberculotic action, ED50” value ([1]; in vivo, mice, p.o., listed as 5 Isomer C) was 3 mg/kg, the “Antituberculotic action, MIC (minimum inhibitory concentration)” value ([2]; listed as 5 Isomer C) was 0.06 µg/mL and the “Cmax (highest concentration of the active ingredient in the blood plasma)” value (Pharmacokinetics in mice; listed as 5 Isomer C) was 23700 ng/mL. For the same molecule, the “t/2 (half-life period of excretion)” value (Pharmacokinetics in mice; listed as 5 Isomer C) was 15 h.

In the case of `COC1C=COC2(C)Oc3c(C)c(O)c4c(O)c(c(C=NN5CC6CCCCN6CC5C)c(O)c4c3C2=O)NC(=O)C(C)=CC=CC(C)C(O)C(C)C(O)C(C)C(OC(C)=O)C1C` (single isomer, unassigned) [Example 5 Isomer D, hydrazone of 3-formylrifamycin SV with 3-amino-2-methylperhydro-1H-pyrido[1,2-a]pyrazine], the “Antituberculotic action, ED50” value ([1]; in vivo, mice, p.o., listed as 5 Isomer D) is reported as 3 mg/kg, the “Antituberculotic action, MIC (minimum inhibitory concentration)” value ([2]; listed as 5 Isomer D) is reported as 0.06 µg/mL and the “Cmax (highest concentration of the active ingredient in the blood plasma)” value (Pharmacokinetics in mice; listed as 5 Isomer D) is reported as 33600 ng/mL. For the same molecule, the “t/2 (half-life period of excretion)” value (Pharmacokinetics in mice; listed as 5 Isomer D) was 25.1 h.

For `CO[C@H]1/C=C/O[C@@]2(C)Oc3c(C)c(O)c4c(O)c(c(C=NN5CCN6C(CCC7CCCCC76)C5)c(O)c4c3C2=O)NC(=O)/C(C)=C\C=C\[C@H](C)[C@H](O)[C@@H](C)[C@@H](O)[C@@H](C)[C@H](OC(C)=O)[C@@H]1C` (single isomer, unassigned) [Example 6 Isomer A, hydrazone of 3-formylrifamycin SV with 3-aminoperhydro-1H-pyrazino[1,2-a]quinoline], the “Antituberculotic action, MIC (minimum inhibitory concentration)” value ([2]; listed as 6 Isomer A) was 0.03 µg/mL, the Cmax (Pharmacokinetics in mice; in vivo) was 56300 ng/mL and the half-life (Pharmacokinetics in mice; in vivo) was 33.4 h.

In the case of `CO[C@H]1/C=C/O[C@@]2(C)Oc3c(C)c(O)c4c(O)c(c(C=NN5CCN6C(CCC7CCCCC76)C5)c(O)c4c3C2=O)NC(=O)/C(C)=C\C=C\[C@H](C)[C@H](O)[C@@H](C)[C@@H](O)[C@@H](C)[C@H](OC(C)=O)[C@@H]1C` (single isomer, unassigned) [Example 6 Isomer B, hydrazone of 3-formylrifamycin SV with 3-aminoperhydro-1H-pyrazino[1,2-a]quinoline], the “Antituberculotic action, MIC (minimum inhibitory concentration)” value ([2]; listed as 6 Isomer B) is reported as 0.007 µg/mL, the “t/2 (half-life period of excretion)” value (Pharmacokinetics in mice) is reported as 40.9 h and the “Cmax (highest concentration of the active ingredient in the blood plasma)” value (Pharmacokinetics in mice) is reported as 34000 ng/mL.

For `COC1C=COC2(C)Oc3c(C)c(O)c4c(O)c(c(C=NN5CCN6CCCCC6C5)c(O)c4c3C2=O)NC(=O)C(C)=CC=CC(C)C(O)C(C)C(O)C(C)C(OC(C)=O)C1C` (centres unmarked) [Example 1], the “Antituberculotic action, ED50” value ([1]; in vivo, mice, p.o.) was 0.8 mg/kg, the “t/2 (half-life period of excretion)” value (Pharmacokinetics in rats) was 17.0 h and the “Cmax (highest concentration of the active ingredient in the blood plasma)” value (Pharmacokinetics in rats) was 24500 ng/mL. For the same molecule, the “Antituberculotic action, MIC (minimum inhibitory concentration)” value [2] was 0.03 µg/mL, the “t/2 (half-life period of excretion)” value (Pharmacokinetics in mice) was 20 h and the “Cmax (highest concentration of the active ingredient in the blood plasma)” value (Pharmacokinetics in mice) was 27300 ng/mL.

`CO[C@H]1/C=C/O[C@@]2(C)Oc3c(C)c(O)c4c(O)c(c(C=NN5CCN6CCCC6C5)c(O)c4c3C2=O)NC(=O)/C(C)=C\C=C\[C@H](C)[C@H](O)[C@@H](C)[C@@H](O)[C@@H](C)[C@H](OC(C)=O)[C@@H]1C` (some centres unmarked) [Example 2, hydrazone of 3-formylrifamycin SV with 3-aminoperhydropyrrolo[1,2-a]pyrazine] showed an ED50 [1, 4] of 2.5 mg/kg, a half-life (Pharmacokinetics in rats) of 13.2 h and a Cmax (Pharmacokinetics in rats; plasma) of 11600 ng/mL. For the same molecule, the MIC [2] was 0.1 µg/mL (≈ 0.118 µM), the half-life (Pharmacokinetics in mice; in vivo) was 9.1 h and the Cmax (Pharmacokinetics in mice; plasma) was 57700 ng/mL.

With `CO[C@H]1/C=C/O[C@@]2(C)Oc3c(C)c(O)c4c(O)c(c(C=NN5CCN6C(C)CCCC6C5)c(O)c4c3C2=O)NC(=O)/C(C)=C\C=C\[C@H](C)[C@H](O)[C@@H](C)[C@@H](O)[C@@H](C)[C@H](OC(C)=O)[C@@H]1C` (some centres unmarked) [Example 3, hydrazone of 3-formylrifamycin SV with 3-amino-8-methylperhydro-1H-pyrido[1,2-a]pyrazine] the ED50 ([1]; read-out: Antituberculotic action, ED50, in vivo, mice, p.o.) was 1 mg/kg, the MIC [2] was 0.4 µg/mL (≈ 0.456 µM) and the half-life (Pharmacokinetics in mice; in vivo) was 14 h. The Cmax (Pharmacokinetics in mice; plasma) was 22600 ng/mL.

In the case of `CO[C@H]1/C=C/O[C@@]2(C)Oc3c(C)c(O)c4c(O)c(c(C=NN5CCN6c7ccccc7CCC6C5)c(O)c4c3C2=O)NC(=O)/C(C)=C\C=C\[C@H](C)[C@H](O)[C@@H](C)[C@@H](O)[C@@H](C)[C@H](OC(C)=O)[C@@H]1C` (some centres unmarked) [Example 7, hydrazone of 3-formylrifamycin SV with 3-amino-2,3,4,4a,5,6-hexahydro-1H-pyrazino[1,2-a]quinoline], the ED50 [1, 4] is reported as 4.5 mg/kg, the MIC [2] is reported as 0.06 µg/mL (≈ 0.0659 µM) and the half-life (Pharmacokinetics in mice; in vivo) is reported as 32.2 h. It also gave a Cmax (Pharmacokinetics in mice; plasma) of 24000 ng/mL.

Molecule `CO[C@H]1/C=C/O[C@@]2(C)Oc3c(C)c(O)c4c(O)c(c(C=NN5CCN6CCSCC6C5)c(O)c4c3C2=O)NC(=O)/C(C)=C\C=C\[C@H](C)[C@H](O)[C@@H](C)[C@@H](O)[C@@H](C)[C@H](OC(C)=O)[C@@H]1C` (some centres unmarked) [Example 8, hydrazone of 3-formylrifamycin SV with 6-aminoperhydropyrazolo[2,1-c]-p-thiazine] has an ED50 [1, 4] of 8 mg/kg, an MIC [2] of 0.2 µg/mL (≈ 0.227 µM) and a half-life (Pharmacokinetics in mice; in vivo) of 8.9 h. It also gave a Cmax (Pharmacokinetics in mice; plasma) of 72000 ng/mL.

In the case of `COC1C=COC2(C)Oc3c(C)c(O)c4c(O)c(c(C=NN5CCN6CCN(C)CC6C5)c(O)c4c3C2=O)NC(=O)C(C)=CC=CC(C)C(O)C(C)C(O)C(C)C(OC(C)=O)C1C` (centres unmarked) [Example 9, hydrazone of 3-formylrifamycin SV with 3-amino-6-methylperhydro-1H-pyrazino[1,2-a]pyrazine], the “Antituberculotic action, MIC (minimum inhibitory concentration)” value [2] is reported as 0.1 µg/mL.

In the case of `CO[C@H]1/C=C/O[C@@]2(C)Oc3c(C)c(O)c4c(O)c(c(/C=N/N5CCN(C)CC5)c(O)c4c3C2=O)NC(=O)/C(C)=C\C=C\[C@H](C)[C@H](O)[C@@H](C)[C@@H](O)[C@@H](C)[C@H](OC(C)=O)[C@@H]1C` [Rifampicin, hydrazone of 3-formylrifamycin SV with 1-amino-4-methylpiperazine, reference compound], the ED50 [1, 4] is given as 5.9 mg/kg, the antituberculotic activity (tuberculosis infections) is given as “excellent antituberculotic activity” and the “dwell time in the organism” value [3] is given as “relatively short dwell time in the organism”. For the same molecule, the Cmax (Pharmacokinetics in rats) was 13900 ng/mL, the MIC [2] was 0.03 µg/mL (≈ 0.0365 µM) and the Cmax (Pharmacokinetics in mice; plasma) was 24800 ng/mL.

— patent US4551450A, “Rifamycin hydrazones, pharmaceutical compositions containing them and their use” (Ciba-Geigy Corporation, priority 1984, dated 1985)
